Non-standard residues stand in square brackets, D forms with d. Residues, ends and D or L forms follow the SMILES beside them. *: point of attachment. dPhe(4-NHCONH2) = NC(=O)Nc1ccc(C[C@@H](N)C(=O)O)cc1; Dihydroorotyl(S) = O=C1C[C@@H](C(=O)*)NC(=O)N1; dPhe(4-Cl) = N[C@H](Cc1ccc(Cl)cc1)C(=O)O; Phe(4-NH2) = Nc1ccc(C[C@H](N)C(=O)O)cc1; d2Nal = N[C@H](Cc1ccc2ccccc2c1)C(=O)O; Lys(iPr) = CC(C)NCCCC[C@H](N)C(=O)O; d3Pal = N[C@H](Cc1cccnc1)C(=O)O
Test system: Patient with Ankylosing Spondylitis
Experiment: Ankylosing spondylitis patient treated with degarelix (and earlier TNF inhibitors)
Assay type: in vivo, human
Details: for Glomerular filtration rate (>60): 10 Sep. 2014 56; for Creatinine (60-105 μmol/L): 10 Sep. 2014 112; for Urate (230-480 μmol/L): 10 Sep. 2014 515; for CRP: 10 Sep. 2014 <5; for BASDAI: baseline 8.7
Description: Example of Treating a Patient with Ankylosing Spondylitis with a GnRH Antagonist
Diagnosed with ankylosing spondylitis in 1984, HLAB27 positive, with repeated iridocyclitis. Used non-steroidal anti-inflammatory drugs previously. They were offered the TNFα inhibitor Golilimumab in 2010. Their disease activity score was 8.9 in October 2010 (see below for explanation of disease activity score) on initiating Golilimumab; by the June 2012 this score had reduced to 6.6, but by May 2013 the effect had worn off and their score was 7.6. May 2013, they initiated Enbrel treatment, but their disease activity increased from 7.6 to 8.3. Due to their poor response to TNFα therapy, they were offered the GnRH antagonist degarelix in September 2014.
Disease activity in ankylosing spondylitis is measured by the BASDAI (Bath Ankylosing Spondylitis Disease Activity Index (1)), which has been extensively validated in clinical trials, 2, 3 and is one of the most commonly used outcome measures in clinical trials. This is a composite index that evaluates fatigue, axial and peripheral pain, stiffness and enthesopathy. Their BASDAI was at 8.7 at baseline. In September 2014 they received their first dose of degarelix 240 mg s.c. By 2 weeks, their BASDAI had reduced to 6.8, and by 6 weeks it had reduced to 5.8. This is the lowest BASDAI score they have ever had since we first started using this method of assessment 4 years ago in 2010. Their morning stiffness lasted 4 hours at baseline, by 6 weeks their morning stiffness had reduced to 2 hours. They had their second dose of degarelix 80 mg s.c in October 2014. Lumbar flexion and maximum arm abduction were increased after 6 weeks of treatment.
Response to therapy in clinical practice is defined as improvement of 2 units or 50% on a 0-10 scale of the BASDAI, and expert opinion that the treatment should be continued. Their reduction by 6 weeks was 2.9 units, and 7.1 units with an 82% BASDAI score improvement by 9 weeks, and we shall continue treatment. A BASDAI 50% improvement is defined as a major clinical response. […] For comparison, approximately 50-60% of patients achieve a BASDAI 50 by 12 weeks on TNF inhibitors (4). Their ESR has decreased from 46 mm to 23 mm, which is their lowest ESR reading in 19 years. […] By 9 weeks of GnRH antagonist therapy, their kidney function has normalized, and fasting glucose reduced from 7.4 to 6.5 mmol/L. By 3 months, the effect on their ankylosing spondylitis remained, creatinine was at 98 μmol/L, with a glomerular filtration rate of 66 ml/min/1.73 m^2 in December 2014.

[1] = ankylosing spondylitis patient, after 6 weeks
[2] = ankylosing spondylitis patient, by 3 months, December 2014
[3] = ankylosing spondylitis patient, by 6 weeks
[4] = ankylosing spondylitis patient, by 9 weeks

CC(=O)N[C@H](Cc1ccc2ccccc2c1)C(=O)N[C@H](Cc1ccc(Cl)cc1)C(=O)N[C@H](Cc1cccnc1)C(=O)N[C@@H](CO)C(=O)N[C@@H](Cc1ccc(NC(=O)[C@@H]2CC(=O)NC(=O)N2)cc1)C(=O)N[C@H](Cc1ccc(NC(N)=O)cc1)C(=O)N[C@@H](CC(C)C)C(=O)N[C@@H](CCCCNC(C)C)C(=O)N1CCC[C@H]1C(=O)N[C@H](C)C(N)=O [degarelix] (Ac-[d2Nal][dPhe(4-Cl)][d3Pal]S[Phe(4-NH2)](Dihydroorotyl(S))[dPhe(4-NHCONH2)]L[Lys(iPr)]P[dA]-NH2)
Glucose fasting (4.0-6.0 mmol/L) (10 Nov. 2014 (9 weeks), 10 Sep. 2014 7.4): 6.5 mmol/L | Glomerular filtration rate (>60) (10 Nov. 2014): 65 ml/min/1.73 m^2 | Creatinine (60-105 μmol/L) (10 Nov. 2014): 99 µmol/L | Urate (230-480 μmol/L) (10 Nov. 2014): 426 µmol/L | CRP (10 Nov. 2014): <5 | Glomerular filtration rate (>60) (24 Sep. 2014): 55↓ ml/min/1.73 m^2 | Creatinine (60-105 μmol/L) (24 Sep. 2014): 114↑ μmol/L | Urate (230-480 μmol/L) (24 Sep. 2014): 512↑ μmol/L | ESR (<20 mm) (24 Sep. 2014, 10 Sep. 2014 (start) 46): 31↑ mm | CRP (24 Sep. 2014): <5 | ESR (<20 mm) (27 Oct. 2014, 10 Sep. 2014 46): 28↑ mm | Glomerular filtration rate (>60) (27 Oct. 2014): 56↓ ml/min/1.73 m^2 | Creatinine (60-105 μmol/L) (27 Oct. 2014): 111↑ μmol/L | Urate (230-480 μmol/L) (27 Oct. 2014): 495↑ μmol/L | CRP (27 Oct. 2014): <5 | Lumbar flexion [1]: increased | Maximum arm abduction [1]: increased | ASAS response achieved (ankylosing spondylitis patient, at least 80% improvement): ASAS 80 | BASDAI (ankylosing spondylitis patient, by 2 weeks): 6.8 | Creatinine [2]: 98 µmol/L | Glomerular filtration rate [2]: 66 ml/min/1.73 m^2 | BASDAI reduction [3]: 2.9 units | BASDAI [3]: 5.8 | Morning stiffness (ankylosing spondylitis patient, by 6 weeks, baseline 4 hours): 2 h | BASDAI reduction [4]: 7.1 units | BASDAI score improvement [4]: 82% | Kidney function [4]: normalized
